Assay results reported in US20250361239A1, “PROTEIN DEGRADERS AND USES THEREOF” (ZHUHAI YUFAN BIOTECHNOLOGIES CO., LTD., priority 2022, published 2025).

The molecules below were run against T1, GSPT1 (Homo sapiens, UniProt P15170+Q96SW2) (assay: Degradation of GSPT1 by the compounds (HiBiT signal in GSPT1/HEK293 hibit cells)). Conditions: 6 h incubation, Nano Glo HiBiT Lytic Detection.
T1 construct: host or cells: HEK293
Format: cell-based
Experimental: GSPT1/HEK293 hibit cell lines were constructed by Shanghai BioDuro Co., Ltd., HEK293 cell lines were purchased from ATCC (Cat #ATCC® CRL-1573™), DMEM media were purchased from ATCC (Cat #ATCC® 30-2002™), FBS was purchased from Gibco (Cat #10091148), Nano Glo HiBiT Lytic Detection System was purchased from Promega (Cat #N3040), and 96-well plates were purchased from coming (Cat #3610).
The degradation of GSPT1 by the compounds was determined by measuring the intensity of hibit signals in cells. Firstly, the cells were digested with pancreatin, and the digestion was then terminated with medium. The cells were centrifuged, and the supernatant was discarded. The centrifuged cells were resuspended in a fresh complete medium, and the cell density was adjusted to 2.5×10^4 cells/mL. The resuspended cells were inoculated into an opaque 96-well cell culture plate at 100 μL of cell suspension per well, and the cell culture plate was incubated in a cell incubator at 37° C. overnight. The next day, dilutions (20 μL) of compounds with different concentrations were added, and the plate was incubated in a cell incubator for 6 h. After 6 h, 60 μL of Nano Glo HiBiT Lytic Detection System reagent was added and the luminescence values were read on the instrument.
According to the corresponding degradation rate and concentration of each gradient concentration well, a gradient curve of degradation rate was fitted using XLFit software, and the DC50 values of compounds were calculated.

T1 sequence (P15170 whole entry): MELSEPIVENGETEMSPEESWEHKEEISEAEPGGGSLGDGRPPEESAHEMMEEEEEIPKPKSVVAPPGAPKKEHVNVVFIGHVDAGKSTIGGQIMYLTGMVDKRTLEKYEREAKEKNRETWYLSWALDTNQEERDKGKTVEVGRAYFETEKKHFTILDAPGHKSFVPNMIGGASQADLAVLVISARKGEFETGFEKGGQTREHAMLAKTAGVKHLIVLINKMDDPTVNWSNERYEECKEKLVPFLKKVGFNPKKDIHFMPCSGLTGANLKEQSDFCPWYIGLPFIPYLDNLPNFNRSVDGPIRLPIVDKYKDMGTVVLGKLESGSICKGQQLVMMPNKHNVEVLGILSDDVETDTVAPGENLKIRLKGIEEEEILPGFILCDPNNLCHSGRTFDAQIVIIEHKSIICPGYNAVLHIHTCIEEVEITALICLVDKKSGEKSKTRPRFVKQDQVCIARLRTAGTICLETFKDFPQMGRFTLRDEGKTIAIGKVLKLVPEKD
T1 sequence (Q96SW2 whole entry): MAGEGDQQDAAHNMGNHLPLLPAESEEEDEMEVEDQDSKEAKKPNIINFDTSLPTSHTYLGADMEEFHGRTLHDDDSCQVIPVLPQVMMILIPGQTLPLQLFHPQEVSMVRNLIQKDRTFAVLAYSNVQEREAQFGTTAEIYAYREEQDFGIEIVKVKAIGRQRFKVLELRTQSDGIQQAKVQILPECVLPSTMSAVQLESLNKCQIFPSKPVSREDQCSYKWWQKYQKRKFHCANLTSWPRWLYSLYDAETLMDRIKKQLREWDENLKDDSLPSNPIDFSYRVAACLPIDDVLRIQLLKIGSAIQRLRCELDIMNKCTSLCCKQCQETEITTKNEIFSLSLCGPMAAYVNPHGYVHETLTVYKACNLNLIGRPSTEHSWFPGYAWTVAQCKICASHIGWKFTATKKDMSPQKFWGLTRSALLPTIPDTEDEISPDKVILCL
T1 sequence (Q16531 whole entry partner): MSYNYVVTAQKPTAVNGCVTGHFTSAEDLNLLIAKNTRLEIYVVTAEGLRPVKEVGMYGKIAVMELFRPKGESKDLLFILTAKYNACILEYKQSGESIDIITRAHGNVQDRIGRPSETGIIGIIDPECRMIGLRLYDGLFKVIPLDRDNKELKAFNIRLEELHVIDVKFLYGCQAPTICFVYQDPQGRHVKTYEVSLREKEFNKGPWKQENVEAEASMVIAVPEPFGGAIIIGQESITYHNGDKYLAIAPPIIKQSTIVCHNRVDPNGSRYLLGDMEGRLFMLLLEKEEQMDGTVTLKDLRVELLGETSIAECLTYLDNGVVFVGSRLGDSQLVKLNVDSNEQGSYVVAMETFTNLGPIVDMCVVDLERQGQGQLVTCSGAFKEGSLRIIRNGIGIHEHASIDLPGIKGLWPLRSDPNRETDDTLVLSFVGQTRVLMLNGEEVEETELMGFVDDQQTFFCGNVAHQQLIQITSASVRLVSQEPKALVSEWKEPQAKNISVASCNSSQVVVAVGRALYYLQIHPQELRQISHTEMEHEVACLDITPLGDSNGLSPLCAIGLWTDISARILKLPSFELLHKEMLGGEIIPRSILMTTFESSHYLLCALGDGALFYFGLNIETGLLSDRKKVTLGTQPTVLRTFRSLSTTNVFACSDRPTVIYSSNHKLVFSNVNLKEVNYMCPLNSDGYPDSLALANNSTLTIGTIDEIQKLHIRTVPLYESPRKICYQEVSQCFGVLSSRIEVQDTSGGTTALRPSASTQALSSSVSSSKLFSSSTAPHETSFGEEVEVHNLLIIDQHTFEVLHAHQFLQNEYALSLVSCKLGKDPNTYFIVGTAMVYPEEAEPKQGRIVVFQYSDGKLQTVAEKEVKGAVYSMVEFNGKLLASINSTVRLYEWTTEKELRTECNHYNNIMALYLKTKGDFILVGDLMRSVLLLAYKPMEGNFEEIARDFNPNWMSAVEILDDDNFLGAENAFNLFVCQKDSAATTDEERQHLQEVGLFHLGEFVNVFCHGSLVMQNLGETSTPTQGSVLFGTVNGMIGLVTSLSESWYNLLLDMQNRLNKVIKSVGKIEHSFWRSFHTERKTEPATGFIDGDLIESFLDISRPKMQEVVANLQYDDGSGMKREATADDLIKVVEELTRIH

Structure (SMILES) | DC50 [nM]
O=C1CCC(N2C(=O)c3cccc(NCc4cccc(C(=O)NC5CCC(c6csc7ccncc67)CC5)c4)c3C2=O)C(=O)N1 (centres unmarked) [Example 56] | < 100
O=C1CCC(N2C(=O)c3cccc(NCc4ccnc(C(=O)NC5CCC(c6nc7ccccc7o6)CC5)c4)c3C2=O)C(=O)N1 (centres unmarked) [Example 22] | < 100
O=C1CCC(N2C(=O)c3cccc(NCc4cccc(C(=O)NC5CCC(c6cc7ccccc7s6)CC5)c4)c3C2=O)C(=O)N1 (centres unmarked) [Example 44] | < 100
Cn1c(C2CC(NC(=O)c3cccc(CNc4cccc5c4C(=O)N(C4CCC(=O)NC4=O)C5=O)c3)C2)nc2ccncc21 (centres unmarked) [Example 9] | < 100
COc1ccc2nc([C@H]3CC[C@H](CNc4cc(CNc5cccc6c5C(=O)N(C5CCC(=O)NC5=O)C6=O)ccn4)CC3)sc2n1 (some centres unmarked) [Example 137] | < 100
O=C1CCC(N2Cc3c(OCc4ccnc(NC[C@H]5CC[C@H](c6nc7cccnc7s6)CC5)c4)cccc3C2=O)C(=O)N1 (some centres unmarked) [Example 135] | < 100
COc1ncc(CNc2cccc3c2C(=O)N(C2CCC(=O)NC2=O)C3=O)cc1C(=O)N[C@H]1CC[C@H](c2nc3cccnc3s2)CC1 (some centres unmarked) [Example 134] | < 100

Each molecule was assayed on HL60 cells (assay: HL60 cell killing experiment (CellTiter-Glo cell viability)). Conditions: 48 h incubation, CTG luminescence.
Format: cell-based
Experimental: HL60 cell lines were purchased from ATCC (Cat #ATCC® CCL-240™), IMDM media were purchased from ATCC (Cat #ATCC® 30-2005™), FBS was purchased from Gibco (Cat #10091148), celltiter-glo luminescent cell viability assay was purchased from promega (Cat #G7572), and 96-well plates were purchased from corning (Cat #3610).
The effect of compounds on the growth of HL60 cells was determined by measuring cell viability. Firstly, cells in the logarithmic growth phase were collected and centrifuged, and the culture supernatant was discarded. The centrifuged cells were resuspended in a fresh complete medium, and the cell density was adjusted to 5×10^4 cells/mL. The resuspended cells were inoculated into two opaque 96-well cell culture plates at 100 μL of cell suspension per well, and the cell culture plates were incubated in a cell incubator at 37° C. for 4 h. After 4 h, dilutions (20 μL) of compounds with different concentrations were added. After one of the cell plates was cooled to room temperature, 60 μL of CTG reagent was added, and the luminescence values were read on the instrument as G0. The other one was incubated in a cell incubator for 48 h. After 48 h, 60 μL of CTG reagent was added, and the luminescence values were read on the instrument as G3.
According to the corresponding proliferation rate and concentration of each gradient concentration well, a gradient curve of cell proliferation was fitted using XLFit software, and the GI50 values of compounds were calculated.

Structure (SMILES) | GI50 [nM]
O=C1CCC(N2C(=O)c3cccc(NCc4cccc(C(=O)NC5CCC(c6csc7ccccc67)CC5)c4)c3C2=O)C(=O)N1 (centres unmarked) [Example 46] | < 100

Same assay, conditions: Homo sapiens, HL-60, 48 h incubation, CTG luminescence

Structure (SMILES) | GI50 [nM]
Cn1c(N2CCC(NC(=O)c3cc(CNc4cccc5c4C(=O)N(C4CCC(=O)NC4=O)C5=O)ccn3)CC2)nc2ccccc21 (centres unmarked) [Example 41] | < 100
CN(C)c1cc2c(cn1)nc([C@H]1CC[C@H](NC(=O)c3cc(CNc4cccc5c4C(=O)N(C4CCC(=O)NC4=O)C5=O)ccn3)CC1)n2C (some centres unmarked) [Example 106] | < 100
O=C1CCC(N2C(=O)c3cccc(NCc4cccc(C(=O)NC5CCC(c6csc7ncccc67)CC5)c4)c3C2=O)C(=O)N1 (centres unmarked) [Example 54] | < 100
COc1cc2nc(C3CCC(NC(=O)c4cccc(CNc5cccc6c5C(=O)N(C5CCC(=O)NC5=O)C6=O)c4)CC3)n(C)c2cn1 (centres unmarked) [Example 88] | < 100
O=C1CCC(N2C(=O)c3cccc(NCc4cccc(C(=O)NC5CCC(c6csc7ccncc67)CC5)c4)c3C2=O)C(=O)N1 (centres unmarked) [Example 56] | < 100
O=C1CCC(N2C(=O)c3cccc(NCc4ccnc(C(=O)NC5CCC(c6nc7ccccc7o6)CC5)c4)c3C2=O)C(=O)N1 (centres unmarked) [Example 22] | < 100
O=C1CCC(N2C(=O)c3cccc(NCc4cccc(C(=O)NC5CCC(c6cc7ccccc7s6)CC5)c4)c3C2=O)C(=O)N1 (centres unmarked) [Example 44] | < 100
O=C1CCC(N2C(=O)c3cccc(NCc4cccc5c4CCN5C(=O)[C@H]4CC[C@H](c5nc6cccnc6s5)CC4)c3C2=O)C(=O)N1 (some centres unmarked) [Example 87] | < 100
O=C1CCC(N2C(=O)c3cccc(NCc4cccc(C(=O)NC5CCC(c6n[nH]c7ccncc67)CC5)c4)c3C2=O)C(=O)N1 (centres unmarked) [Example 20] | < 100
CN(C[C@H]1CC[C@H](c2nc3cccnc3s2)CC1)c1cc(CNc2cccc3c2C(=O)N(C2CCC(=O)NC2=O)C3=O)ccn1 (some centres unmarked) [Example 64] | < 100
CN(C)c1cc2c(cn1)nc([C@H]1CC[C@H](C(=O)Nc3cccc(CNc4cccc5c4C(=O)N(C4CCC(=O)NC4=O)C5=O)c3)CC1)n2C (some centres unmarked) [Example 103] | < 100
CN(C)c1ccc2c(c1)nc(C1CCC(NC(=O)c3cccc(CNc4cccc5c4C(=O)N(C4CCC(=O)NC4=O)C5=O)c3)CC1)n2C (centres unmarked) [Example 102] | < 100
O=C1CCC(N2C(=O)c3cccc(NCc4cccc(C(=O)NC5CCC(c6csc7ccccc67)CC5)c4)c3C2=O)C(=O)N1 (centres unmarked) [Example 45] | < 100
Cn1c2cnccc2nc1[C@H]1CC[C@H](C(=O)Nc2cccc(CNc3cccc4c3C(=O)N(C3CCC(=O)NC3=O)C4=O)c2F)CC1 (some centres unmarked) [Example 78] | < 100
O=C1CCC(N2C(=O)c3cccc(NCc4ccnc(NC[C@H]5CC[C@H](c6nc7cccnc7s6)CC5)c4)c3C2=O)C(=O)N1 (some centres unmarked) [Example 28] | < 100
Cn1c2ccccc2nc1[C@H]1CC[C@H](N2Cc3ccc(CNc4cccc5c4C(=O)N(C4CCC(=O)NC4=O)C5=O)cc3C2=O)CC1 (some centres unmarked) [Example 68] | < 100
O=C1CCC(N2C(=O)c3cccc(NC4(c5ccnc(C(=O)N[C@H]6CC[C@H](c7nc8cccnc8s7)CC6)c5)CC4)c3C2=O)C(=O)N1 (some centres unmarked) [Example 92] | < 100
Cn1c2ccc(CNc3cccc4c3C(=O)N(C3CCC(=O)NC3=O)C4=O)cc2nc1[C@H]1CC[C@H](c2nc3cccnc3s2)CC1 (some centres unmarked) [Example 73] | < 100
